# Experimental data: PubChem BioAssay (NCI)
#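 1) Cells in 96-well plates. 2) Compound, 48 h, 5 concentrations. 3) Linear interpolation between surrounding doses. 4) Unreached endpoint = highest concentration. At the GI50, growth is halved. TGI denotes the concentration required for complete inhibition of growth.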
# Legend:
# Assay in all cases: NCI-60 cell line screen, 48 h
# SF-295 CNS = system: SF-295 CNS
# MDA-MB-435 = system: MDA-MB-435
# CAKI-1 renal = system: CAKI-1 renal
# UO-31 renal = system: UO-31 renal
# SN12C renal = system: SN12C renal
# ACHN renal = system: ACHN renal
# RXF 393 renal = system: RXF 393 renal
# MDA-N = system: MDA-N
# M14 melanoma = system: M14 melanoma
# SK-MEL-5 melanoma = system: SK-MEL-5 melanoma
# HCC-2998 colon = system: HCC-2998 colon
# HS 578T breast = system: HS 578T breast
# EKVX NSCLC = system: EKVX NSCLC
# SNB-19 CNS = system: SNB-19 CNS
# KM12 colon = system: KM12 colon
# HL-60(TB) leukemia = system: HL-60(TB) leukemia
# SR leukemia = system: SR leukemia
# 786-0 renal = system: 786-0 renal
# BT-549 breast = system: BT-549 breast
# A498 renal = system: A498 renal
# DU-145 prostate = system: DU-145 prostate
# MOLT-4 leukemia = system: MOLT-4 leukemia
# NCI-H460 lung = system: NCI-H460 lung
# HOP-62 NSCLC = system: HOP-62 NSCLC
# NCI/ADR-RES ovarian = system: NCI/ADR-RES ovarian
# SF-268 CNS = system: SF-268 CNS
# MCF7 breast = system: MCF7 breast
# HCT-15 colon = system: HCT-15 colon
# SK-MEL-2 melanoma = system: SK-MEL-2 melanoma
# SW-620 colon = system: SW-620 colon
# SNB-75 CNS = system: SNB-75 CNS
# RPMI-8226 leukemia = system: RPMI-8226 leukemia
# UACC-257 melanoma = system: UACC-257 melanoma
# OVCAR-5 ovarian = system: OVCAR-5 ovarian
# HOP-92 NSCLC = system: HOP-92 NSCLC
# NCI-H522 lung = system: NCI-H522 lung
# K-562 leukemia = system: K-562 leukemia
# PC-3 prostate = system: PC-3 prostate
# COLO 205 colon = system: COLO 205 colon
# MALME-3M melanoma = system: MALME-3M melanoma
# HT29 colon = system: HT29 colon
# A549 NSCLC = system: A549 NSCLC
# UACC-62 melanoma = system: UACC-62 melanoma
# IGROV1 ovarian = system: IGROV1 ovarian
# MDA-MB-231 breast = system: MDA-MB-231 breast
# HCT-116 colon = system: HCT-116 colon
# SK-MEL-28 melanoma = system: SK-MEL-28 melanoma
# NCI-H23 lung = system: NCI-H23 lung
# CCRF-CEM leukemia = system: CCRF-CEM leukemia
# SK-OV-3 ovarian = system: SK-OV-3 ovarian
# U251 CNS = system: U251 CNS
# SF-539 CNS = system: SF-539 CNS
# T-47D breast = system: T-47D breast
# LOX IMVI melanoma = system: LOX IMVI melanoma
# TK-10 renal = system: TK-10 renal
# OVCAR-3 ovarian = system: OVCAR-3 ovarian
# OVCAR-8 ovarian = system: OVCAR-8 ovarian
# OVCAR-4 ovarian = system: OVCAR-4 ovarian
# NCI-H226 lung = system: NCI-H226 lung
smiles,measurement,setting,value
CC(=O)Nc1nc(C)c(S(=O)(=O)NC(=O)NC2NC(=O)NC2=O)s1 (configuration not stated),TGI,SF-295 CNS,> 100 µM
same,TGI,MDA-MB-435,> 100 µM
same,TGI,CAKI-1 renal,> 100 µM
same,TGI,UO-31 renal,> 100 µM
same,TGI,SN12C renal,> 100 µM
same,TGI,ACHN renal,> 100 µM
same,TGI,RXF 393 renal,> 100 µM
same,TGI,MDA-N,> 100 µM
same,TGI,M14 melanoma,> 100 µM
same,TGI,SK-MEL-5 melanoma,> 100 µM
same,TGI,HCC-2998 colon,> 100 µM
same,TGI,HS 578T breast,> 100 µM
same,TGI,EKVX NSCLC,> 100 µM
same,TGI,SNB-19 CNS,> 100 µM
same,TGI,KM12 colon,> 100 µM
same,TGI,HL-60(TB) leukemia,> 100 µM
same,TGI,SR leukemia,> 100 µM
same,TGI,786-0 renal,> 100 µM
same,TGI,BT-549 breast,> 100 µM
same,TGI,A498 renal,> 100 µM
same,TGI,DU-145 prostate,> 100 µM
same,TGI,MOLT-4 leukemia,> 100 µM
same,TGI,NCI-H460 lung,> 100 µM
same,TGI,HOP-62 NSCLC,> 100 µM
same,TGI,NCI/ADR-RES ovarian,> 100 µM
same,TGI,SF-268 CNS,> 100 µM
same,TGI,MCF7 breast,> 100 µM
same,TGI,HCT-15 colon,> 100 µM
same,TGI,SK-MEL-2 melanoma,> 100 µM
same,TGI,SW-620 colon,> 100 µM
same,TGI,SNB-75 CNS,> 100 µM
same,TGI,RPMI-8226 leukemia,> 100 µM
same,TGI,UACC-257 melanoma,> 100 µM
same,TGI,OVCAR-5 ovarian,> 100 µM
same,TGI,HOP-92 NSCLC,> 100 µM
same,TGI,NCI-H522 lung,> 100 µM
same,TGI,K-562 leukemia,> 100 µM
same,TGI,PC-3 prostate,> 100 µM
same,TGI,COLO 205 colon,> 100 µM
same,TGI,MALME-3M melanoma,> 100 µM
same,TGI,HT29 colon,> 100 µM
same,TGI,A549 NSCLC,> 100 µM
same,TGI,UACC-62 melanoma,> 100 µM
same,TGI,IGROV1 ovarian,> 100 µM
same,TGI,MDA-MB-231 breast,> 100 µM
same,TGI,HCT-116 colon,> 100 µM
same,TGI,SK-MEL-28 melanoma,> 100 µM
same,TGI,NCI-H23 lung,> 100 µM
same,TGI,CCRF-CEM leukemia,> 100 µM
same,TGI,SK-OV-3 ovarian,> 100 µM
same,TGI,U251 CNS,> 100 µM
same,TGI,SF-539 CNS,> 100 µM
same,TGI,T-47D breast,> 100 µM
same,TGI,LOX IMVI melanoma,> 100 µM
same,TGI,TK-10 renal,> 100 µM
same,TGI,OVCAR-3 ovarian,> 100 µM
same,TGI,OVCAR-8 ovarian,> 100 µM
same,TGI,OVCAR-4 ovarian,> 100 µM
COc1ccc(CCN2CCN(CCCc3ccccc3)CC2)cc1,TGI,SF-295 CNS,> 100 µM
same,TGI,MDA-MB-435,> 100 µM
same,TGI,CAKI-1 renal,> 100 µM
same,TGI,UO-31 renal,> 100 µM
same,TGI,SN12C renal,> 100 µM
same,TGI,ACHN renal,> 100 µM
same,TGI,MDA-N,> 100 µM
same,TGI,M14 melanoma,> 100 µM
same,TGI,SK-MEL-5 melanoma,56.9 µM
same,TGI,HCC-2998 colon,> 100 µM
same,TGI,HS 578T breast,> 100 µM
same,TGI,EKVX NSCLC,> 100 µM
same,TGI,SNB-19 CNS,> 100 µM
same,TGI,KM12 colon,> 100 µM
same,TGI,HL-60(TB) leukemia,> 100 µM
same,TGI,SR leukemia,> 100 µM
same,TGI,786-0 renal,> 100 µM
same,TGI,BT-549 breast,> 100 µM
same,TGI,A498 renal,> 100 µM
same,TGI,DU-145 prostate,> 100 µM
same,TGI,MOLT-4 leukemia,> 100 µM
same,TGI,NCI-H460 lung,> 100 µM
same,TGI,HOP-62 NSCLC,> 100 µM
same,TGI,NCI/ADR-RES ovarian,> 100 µM
same,TGI,SF-268 CNS,> 100 µM
same,TGI,MCF7 breast,> 100 µM
same,TGI,HCT-15 colon,> 100 µM
same,TGI,SK-MEL-2 melanoma,> 100 µM
same,TGI,SW-620 colon,> 100 µM
same,TGI,RPMI-8226 leukemia,> 100 µM
same,TGI,UACC-257 melanoma,> 100 µM
same,TGI,OVCAR-5 ovarian,> 100 µM
same,TGI,NCI-H522 lung,> 100 µM
same,TGI,K-562 leukemia,> 100 µM
same,TGI,PC-3 prostate,> 100 µM
same,TGI,COLO 205 colon,54.3 µM
same,TGI,MALME-3M melanoma,> 100 µM
same,TGI,HT29 colon,> 100 µM
same,TGI,A549 NSCLC,> 100 µM
same,TGI,UACC-62 melanoma,> 100 µM
same,TGI,IGROV1 ovarian,> 100 µM
same,TGI,MDA-MB-231 breast,> 100 µM
same,TGI,HCT-116 colon,> 100 µM
same,TGI,SK-MEL-28 melanoma,> 100 µM
same,TGI,NCI-H23 lung,> 100 µM
same,TGI,CCRF-CEM leukemia,> 100 µM
same,TGI,SK-OV-3 ovarian,> 100 µM
same,TGI,U251 CNS,> 100 µM
same,TGI,SF-539 CNS,> 100 µM
same,TGI,T-47D breast,> 100 µM
same,TGI,LOX IMVI melanoma,> 100 µM
same,TGI,TK-10 renal,> 100 µM
same,TGI,OVCAR-3 ovarian,> 100 µM
same,TGI,OVCAR-8 ovarian,> 100 µM
same,TGI,OVCAR-4 ovarian,> 100 µM
same,TGI,NCI-H226 lung,> 100 µM
O=c1cc(-c2ccc(F)cc2)[nH]c2ncccc12,GI50,SF-295 CNS,50 µM
same,TGI,SF-295 CNS,> 100 µM
same,GI50,MDA-MB-435,12 µM
same,TGI,MDA-MB-435,33 µM
same,TGI,CAKI-1 renal,> 100 µM
same,TGI,UO-31 renal,> 100 µM
same,TGI,SN12C renal,> 100 µM
same,TGI,ACHN renal,> 100 µM
same,GI50,MDA-N,14.1 µM
same,TGI,MDA-N,35.9 µM
same,TGI,M14 melanoma,> 100 µM
same,GI50,SK-MEL-5 melanoma,30.3 µM
same,TGI,SK-MEL-5 melanoma,> 100 µM
same,TGI,HCC-2998 colon,> 100 µM
same,TGI,HS 578T breast,> 100 µM
same,TGI,EKVX NSCLC,> 100 µM
same,TGI,SNB-19 CNS,> 100 µM
same,TGI,KM12 colon,> 100 µM
same,GI50,HL-60(TB) leukemia,12.9 µM
same,TGI,HL-60(TB) leukemia,34.1 µM
same,GI50,786-0 renal,44.3 µM
same,TGI,786-0 renal,> 100 µM
same,TGI,BT-549 breast,> 100 µM
same,TGI,A498 renal,> 100 µM
same,TGI,DU-145 prostate,> 100 µM
same,TGI,MOLT-4 leukemia,> 100 µM
same,GI50,NCI-H460 lung,34.7 µM
same,TGI,NCI-H460 lung,> 100 µM
same,TGI,HOP-62 NSCLC,> 100 µM
same,TGI,NCI/ADR-RES ovarian,> 100 µM
same,TGI,SF-268 CNS,> 100 µM
same,TGI,MCF7 breast,> 100 µM
same,TGI,HCT-15 colon,> 100 µM
same,TGI,SK-MEL-2 melanoma,> 100 µM
same,TGI,SW-620 colon,> 100 µM
same,TGI,SNB-75 CNS,81.1 µM
same,TGI,RPMI-8226 leukemia,> 100 µM
same,TGI,UACC-257 melanoma,> 100 µM
same,TGI,OVCAR-5 ovarian,> 100 µM
same,TGI,HOP-92 NSCLC,> 100 µM
same,TGI,NCI-H522 lung,> 100 µM
same,TGI,K-562 leukemia,> 100 µM
same,GI50,PC-3 prostate,46.1 µM
same,TGI,PC-3 prostate,> 100 µM
same,TGI,COLO 205 colon,60.3 µM
same,TGI,MALME-3M melanoma,> 100 µM
same,TGI,HT29 colon,> 100 µM
same,TGI,A549 NSCLC,> 100 µM
same,TGI,UACC-62 melanoma,> 100 µM
same,TGI,IGROV1 ovarian,> 100 µM
same,TGI,MDA-MB-231 breast,> 100 µM
same,GI50,HCT-116 colon,42.9 µM
same,TGI,HCT-116 colon,> 100 µM
same,TGI,SK-MEL-28 melanoma,> 100 µM
same,TGI,NCI-H23 lung,> 100 µM
same,TGI,CCRF-CEM leukemia,> 100 µM
same,TGI,SK-OV-3 ovarian,> 100 µM
same,GI50,U251 CNS,48.2 µM
same,TGI,U251 CNS,> 100 µM
same,TGI,SF-539 CNS,> 100 µM
same,TGI,T-47D breast,> 100 µM
same,TGI,LOX IMVI melanoma,> 100 µM
same,TGI,TK-10 renal,> 100 µM
same,GI50,OVCAR-3 ovarian,45.5 µM
same,TGI,OVCAR-3 ovarian,> 100 µM
same,TGI,OVCAR-8 ovarian,> 100 µM
same,TGI,OVCAR-4 ovarian,> 100 µM
same,TGI,NCI-H226 lung,> 100 µM
